# Several values for one entry are separate records, joined by “and”; a condition that tells them apart may be missing. Identical values can stand only once.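 Results reflect a 48-hour exposure of cells in 96-well plates to compound at five concentrations. GI50: concentration for 50% inhibition of growth. At the TGI there is no net growth.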
# Legend:
# Test in all cases: NCI tumour cell line growth inhibition, 48 h
# CCRF-CEM leukemia = system: CCRF-CEM leukemia
# HCC-2998 colon = system: HCC-2998 colon
# HOP-92 NSCLC = system: HOP-92 NSCLC
# IGROV1 ovarian = system: IGROV1 ovarian
# NCI-H460 lung = system: NCI-H460 lung
# NCI/ADR-RES ovarian = system: NCI/ADR-RES ovarian
# OVCAR-5 ovarian = system: OVCAR-5 ovarian
# OVCAR-8 ovarian = system: OVCAR-8 ovarian
# SF-295 CNS = system: SF-295 CNS
# UACC-62 melanoma = system: UACC-62 melanoma
SMILES,GI50 (CCRF-CEM leukemia) [µM],TGI (CCRF-CEM leukemia) [µM],GI50 (HCC-2998 colon) [µM],TGI (HCC-2998 colon),GI50 (HOP-92 NSCLC) [µM],TGI (HOP-92 NSCLC) [µM],GI50 (IGROV1 ovarian) [µM],TGI (IGROV1 ovarian) [µM],GI50 (NCI-H460 lung) [µM],TGI (NCI-H460 lung) [µM],GI50 (NCI/ADR-RES ovarian) [µM],TGI (NCI/ADR-RES ovarian) [µM],GI50 (OVCAR-5 ovarian) [µM],TGI (OVCAR-5 ovarian) [µM],GI50 (OVCAR-8 ovarian) [µM],TGI (OVCAR-8 ovarian) [µM],GI50 (SF-295 CNS) [µM],TGI (SF-295 CNS),GI50 (UACC-62 melanoma) [µM],TGI (UACC-62 melanoma)
COc1ccc(/C(=N/Nc2ccc([N+](=O)[O-])cc2)Sc2cc(Cl)c(C)cc2S(N)(=O)=O)cc1,6.45,33.9,4.29,8.75 µM,2.47,8.01,9.65,> 93.2,5.55,24.2,5.42,14.1,7.59,19.2,7.28,> 57,3.31,8.78 µM,3.02,8.54 µM
COc1cccc(N=Cc2c3ccccc3c(=O)n3c2oc2ccccc23)c1,4.58,73.2,6.81,44.9 µM,1.68,30.7,5.86,> 100,11.3,> 100,11.6,64.3,27.1,87.4,7.82,39,4.53,30.1 µM,2.58,12.9 µM
CCC1(O)C(=O)OCc2c1cc1n(c2=O)Cc2cc3c(N)cccc3nc2-1 (configuration not stated),,0.0858,,2.58 µM,,0.931,,6.23,,1.13,,0.228,0.106,2.67,,7.21,,2.01 µM,,0.0345 µM
COc1cc2c3c(n(CCCBr)c(=O)c2cc1OC)-c1ccc(NC(C)=O)cc1C3=O,1.44,19.1,11.9,43.9 µM,73.4,> 100,10.8,> 100,0.506,7.31,39.4,> 100,52.6,> 100,18.7,> 100,0.828,11.5 µM,2.1,15.7 µM
COc1cc2c(/C=C3/C(=O)Nc4cccc(Cl)c43)c(Cl)n(Cc3ccccc3)c2cc1C,4.83,> 100,3.1,8.99 µM,44.9,> 100,7.42,> 100,5.46,> 56.3,2.76,12,24.4,> 71.4,5.21,> 71.9,2.11,21.2 µM,1.67,24.1 µM
Cc1c2c(nn1-c1ccc(S(=O)(=O)/N=C3\SCC(=O)N3C(=O)c3ccccc3)cc1)-c1ccccc1CC2,21,49,98.6,> 100 µM,30.9,66.2,> 100,> 100,47.5,> 100,> 100,> 100,49.9,> 100,68.8,> 100,21.6,58.2 µM,18.7,37.6 µM
Cc1cc(C2CCCCC2)n(O)c(=O)c1,,74.5,2.94,> 100 µM and 35.5 µM,,21.5,0.989,> 100,0.507,,1.22,14.9,6.13,> 100,1.92,> 100,0.81,86.8 µM and > 100 µM,0.873,8.85 µM and 18.6 µM
C=C1C(=O)O[C@H]2[C@H]1CC/C(COC(=O)/C=C\C(=O)NCc1ccc(Cn3c(=O)sn(-c4ccc(C#N)cc4)c3=O)cc1)=C\CC[C@@]1(C)O[C@@H]21,0.2,17.9,0.901,1.76 µM,0.622,1.45,0.592,1.3,0.844,1.83,1.39,5.97,0.868,1.84,0.802,2.7,3.54,9.7 µM,0.722,1.45 µM
CN(C)C(=S)SN(C)C(=O)Nc1ccccc1,,> 91.1,,> 62.9 µM,,22.2,,> 100,,> 53.7,,11.1,,> 76,,> 93.7,,> 100 µM,,19.1 µM
Nc1nccc(-c2c(-c3ccc(F)cc3)ncn2CCCN2CCOCC2)n1,> 25,> 25,> 25,> 25 µM,> 21.7,> 25,> 25,> 25,> 25,> 25,> 25,> 25,> 25,> 25,> 25,> 25,> 25,> 25 µM,> 25,> 25 µM
NCCCCn1c2c(c3ccccc3c1=O)C(=O)c1ccccc1-2,0.0195,1.6,0.484,1.92 µM,0.0363,0.535,0.314,,< 0.0218,0.614,0.709,2.54,0.494,1.37,0.0902,0.625,0.0726,0.753 µM,0.0467,0.422 µM
